The record followed here is patent publication US7943639B2, “Compounds” (Proximagen Limited, priority 2002, dated 2011).

One data set has as its system Ob/ob mice. Put plainly: In vivo assay of reduction of food intake. As to conditions: infusion 50 mg/kg/d, measured at steady state. More on the design: species or system mouse. Here is the method:
(c) In Vivo Assay of Reduction of Food Intake
Obese (ob/ob) mouse is selected as the primary animal model for screening as this mutant mouse consumes high amounts of food resulting in a high signal to noise ratio. To further substantiate and compare efficacy data, the effect of the compounds on food consumption is also studied in wild type (C57BL/6J) mice. The amount of food consumed during 15 hours of infusion of compounds is recorded.
Male mice (obese C57BL/6JBom-Lep^ob and lean wild-type C57B1/6JBom; Bomholtsgaard, Denmark) 8-9 weeks with an average body weight of 50 g (obese) and 25 g (lean) are used in all the studies. The animals are housed singly in cages at 23±1° C., 40-60% humidity and have free access to water and standard laboratory chow. The 12/12-h light/dark cycle is set to lights off at 5 p.m. The animals are conditioned for at least one week before start of study.
The test compounds are dissolved in solvents suitable for each specific compound such as cyclodextrin, cyclodextrin/methane sulfonic acid, polyethylene glycol/methane sulfonic acid, saline. Fresh solutions are made for each study. Doses of 30, 50 and 100 mg kg^−1day^−1 are used. The purity of the test compounds is of analytical grade.
The animals are weighed at the start of the study and randomized based on body weight. Alzet osmotic minipumps (Model 2001D; infusion rate 8 μl/h) are used and loaded essentially as recommended by the Alzet technical information manual (Alza Scientific Products, 1997; Theeuwes, F. and Yam, S. I. Ann. Biomed. Eng. 4(4). 343-353, 1976). Continuous subcutaneous infusion with 24 hours duration is used. […]
The weight of the food pellets are measured at 5 p.m. and at 8 p.m. for two days before (baseline) and one day after the implantation of the osmotic minipumps. […]
Food consumption for 15 hours is measured for the three consecutive days and the percentage of basal level values is derived for each animal from the day before and after treatment. The values are expressed as mean±SD and ±SEM from eight animals per dose group. […]

Data set [1] can be described thus: Plasma drug concentration at steady state in the food intake study. The data set is classed as in vivo. The note with it: mouse, subcutaneous, 50 mg/kg/day, Ob/ob mice, single administration 50 mg/kg/d, read-out: Css, u. Here is the method: The animals are weighed at the start of the study and randomized based on body weight. Alzet osmotic minipumps (Model 2001D; infusion rate 8 μl/h) are used and loaded essentially as recommended by the Alzet technical information manual (Alza Scientific Products, 1997; Theeuwes, F. and Yam, S. I. Ann. Biomed. Eng. 4(4). 343-353, 1976). Continuous subcutaneous infusion with 24 hours duration is used. The minipumps are either filled with different concentrations of test compounds dissolved in vehicle or with only vehicle solution and maintained in vehicle pre-warmed to 37° C. (approx. 1 h). The minipumps are implanted subcutaneously in the neck/back region under short acting anesthesia (metofane/enflurane). This surgical procedure lasts approximately 5 min. It takes about 3 h to reach steady state delivery of the compound.
The weight of the food pellets are measured at 5 p.m. and at 8 p.m. for two days before (baseline) and one day after the implantation of the osmotic minipumps. The weigh-in is performed with a computer assisted Mettler Toledo PR 5002 balance. Occasional spillage is corrected for. At the end of the study the animals are killed by neck dislocation and trunk blood sampled for later analysis of plasma drug concentrations.
The plasma sample proteins are precipitated with methanol, centrifuged and the supernatant is transferred to HPLC vials and injected into the liquid chromatography/mass spectrometric system. The mass spectrometer is set for electrospray positive ion mode and Multiple Reaction Monitoring. A linear regression analysis of the standards forced through the origin is used to calculate the concentrations of the unknown samples.

Another data set addresses T1, human 5-HT6 receptor (Homo sapiens, UniProt P50406).
T1 construct: expressed in transfected cells; host or cells: HEK-293 cells under G-418 selection; membranes were prepared from them
Briefly: 5-HT6 binding assay ([3H]-LSD, SPA, membranes of transfected HEK293 cells).

[2] abbreviates: In vitro binding at the human 5-HT6 receptor, [3H]-LSD as labeled ligand, read-out: Ki (nM) human 5-HT6.

Structures can show the parent of a compound that is named as a salt. Where two headings read alike, the source gives them in different places.

T1 sequence (P50406 whole entry): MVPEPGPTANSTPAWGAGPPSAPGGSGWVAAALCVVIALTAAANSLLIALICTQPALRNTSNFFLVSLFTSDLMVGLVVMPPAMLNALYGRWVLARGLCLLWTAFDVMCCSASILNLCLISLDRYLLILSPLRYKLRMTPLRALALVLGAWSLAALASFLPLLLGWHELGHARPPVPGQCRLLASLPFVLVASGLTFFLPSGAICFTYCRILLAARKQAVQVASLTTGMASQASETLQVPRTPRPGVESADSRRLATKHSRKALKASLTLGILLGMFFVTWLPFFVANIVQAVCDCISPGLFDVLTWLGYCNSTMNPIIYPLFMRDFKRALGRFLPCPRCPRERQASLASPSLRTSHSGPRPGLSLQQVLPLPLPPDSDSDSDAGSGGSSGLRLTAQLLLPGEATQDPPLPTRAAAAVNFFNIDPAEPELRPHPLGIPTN

For `Cl.O=S(=O)(c1ccccc1)c1ccc2nccc(N3CCNCC3)c2c1` [Example 1, 6-benzenesulfonyl-4-piperazin-1-yl-quinoline hydrochloride], in the data set on Ob/ob mice, the “% FI reduction” value is on record as 12%. In addition, the concentration at 24 h in data set [1] is 440 nM. Moreover, on human 5-HT6 receptor (setting [2]), the inhibitory constant (Ki) amounted to 10 nM.
On to `NCCc1c[nH]c2ccc(O)cc12` [Example 5-HT, 5-hydroxytryptamine, reference compound], for which the Hill coefficient on human 5-HT6 receptor (inter assay variability over three experiments) is given as 0.94 (SD 0.09).
Consider `CC(C)(C)c1ccc(S(=O)(=O)c2ccc3nccc(N4CCNCC4)c3c2)cc1.Cl` [Example 11, 6-[(4-tert-Butylphenyl)sulfonyl]-4-piperazin-1-ylquinoline hydrochloride], for which the “% FI reduction” value in the data set with Ob/ob mice was 47.1%. In addition, the concentration at 24 h in data set [1] was 20 nM. Also, the Ki on human 5-HT6 receptor (setting [2]) was determined as 6.5 nM.
For `Cc1ccc(C)c(S(=O)(=O)c2ccc3ccnc(N4CCNCC4)c3c2)c1` [Example 20, 7-(2,5-Dimethyl-benzenesulfonyl)-1-piperazin-1-yl-isoquinoline hydrochloride], on human 5-HT6 receptor (setting [2]), the Ki was 10.5 nM.
For the compound `Cl.O=S(=O)(Nc1ccc(O[C@@H]2CCNC2)c2ccccc12)c1ccc(Cl)cc1` [Example 40, 4-Chloro-N-{4-[(3R)-pyrrolidin-3-yloxy]-1-naphthyl}benzenesulfonamide hydrochloride], the “% FI reduction” value in the data set on Ob/ob mice was determined as 44%. In addition, the concentration at 24 h in data set [1] is 200 nM. Besides, the Ki at human 5-HT6 receptor (setting [2]) was 7.5 nM.
Regarding `CN1CCN(c2nccc3sc(S(=O)(=O)Nc4ccccc4)cc23)CC1` [Example 43, 4-(4-Methylpiperazin-1-yl)-N-phenylthieno[3,2-c]pyridine-2-sulfonamide hydrochloride], the inhibition constant Ki on human 5-HT6 receptor (setting [2]) stood at 4.5 nM.
The same measure, in the same setting: for `O=S(=O)(NCCc1cccs1)c1cc2c(N3CCNCC3)nccc2s1` [Example 68, 4-Piperazin-1-yl-thieno[3,2-c]pyridine-2-sulfonic acid (2-thiophen-2-yl-ethyl)-amide hydrochloride] the value was 13 nM; for `O=S(=O)(c1cc2c(N3CCCNCC3)nccc2s1)c1cccc2ccccc12` [Example 85, 4-(1,4-Diazepan-1-yl)-2-[1-naphthylsulfonyl)thieno[3,2-c]pyridine hydrochloride], 32 nM.
With `O=S(=O)(c1ccccc1)n1ccc2c(N3CCNCC3)nccc21` [Example 131, 1-(Phenylsulfonyl)-4-piperazin-1-yl-1H-pyrrolo[3,2-c]pyridine hydrochloride], at human 5-HT6 receptor, affinity was put at a Ki of 5 nM.
For the compound `CN1C[C@@H](NS(=O)(=O)N(C)C)C[C@@H]2c3cccc4c3c(cn4C)C[C@H]21` [mesulergide, reference compound], the inhibition constant (Ki) at human 5-HT6 receptor (3 nM [3H] LSD, 5-HT: over all average against two different membrane preparations, read-out: Ki value, inhibition of [3H] LSD binding (reference compounds, rank order of potency)) came to 1970 nM.
